The text below walks through data of PMC3914206.

Experiment [1] concerns the target T1, panel of 442 kinases (Homo sapiens, UniProt P41240).
T1 construct: purchased KINOMEscan
The experiment is classed as binding. The settings on record: Compound Concentration 10 µM. The source says: (§1) We assessed the selectivity of members of this scaffold using the KINOMEscan methodology across a near comprehensive panel of 442 kinases [[18,27]].

Experiment [2] addresses T2, panel of 442 kinases (Homo sapiens, UniProt O00444).
T2 construct: purchased KINOMEscan
T2 sequence (O00444 1-970): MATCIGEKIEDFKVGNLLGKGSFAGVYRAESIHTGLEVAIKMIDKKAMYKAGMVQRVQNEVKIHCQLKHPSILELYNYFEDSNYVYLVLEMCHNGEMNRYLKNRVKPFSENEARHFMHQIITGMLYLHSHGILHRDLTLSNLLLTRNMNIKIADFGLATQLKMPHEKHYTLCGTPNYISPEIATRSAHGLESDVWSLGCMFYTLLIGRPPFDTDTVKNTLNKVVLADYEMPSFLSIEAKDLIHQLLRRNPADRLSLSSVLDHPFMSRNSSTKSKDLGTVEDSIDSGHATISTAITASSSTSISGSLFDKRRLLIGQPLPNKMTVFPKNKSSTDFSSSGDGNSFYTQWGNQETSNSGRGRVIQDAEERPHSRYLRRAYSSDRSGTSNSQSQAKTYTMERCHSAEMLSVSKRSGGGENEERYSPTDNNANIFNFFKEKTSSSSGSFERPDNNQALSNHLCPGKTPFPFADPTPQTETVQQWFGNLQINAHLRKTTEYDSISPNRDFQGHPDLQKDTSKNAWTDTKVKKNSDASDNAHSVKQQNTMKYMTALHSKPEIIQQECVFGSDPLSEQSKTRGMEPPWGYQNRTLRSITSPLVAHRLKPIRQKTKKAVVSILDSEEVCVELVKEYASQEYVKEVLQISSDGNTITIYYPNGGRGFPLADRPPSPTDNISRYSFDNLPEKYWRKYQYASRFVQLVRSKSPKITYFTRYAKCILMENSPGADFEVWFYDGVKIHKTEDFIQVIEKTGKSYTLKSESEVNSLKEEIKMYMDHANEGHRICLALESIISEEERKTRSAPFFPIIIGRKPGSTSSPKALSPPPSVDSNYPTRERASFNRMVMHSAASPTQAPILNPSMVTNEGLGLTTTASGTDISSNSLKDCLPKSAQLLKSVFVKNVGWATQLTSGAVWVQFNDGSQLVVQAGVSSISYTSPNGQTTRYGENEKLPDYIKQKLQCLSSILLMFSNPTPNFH
The experiment is classed as binding. The settings on record: Compound Concentration 10 µM.
From the text: as §1

SMILES strings stand for the structures.

T1 sequence (P41240 whole entry): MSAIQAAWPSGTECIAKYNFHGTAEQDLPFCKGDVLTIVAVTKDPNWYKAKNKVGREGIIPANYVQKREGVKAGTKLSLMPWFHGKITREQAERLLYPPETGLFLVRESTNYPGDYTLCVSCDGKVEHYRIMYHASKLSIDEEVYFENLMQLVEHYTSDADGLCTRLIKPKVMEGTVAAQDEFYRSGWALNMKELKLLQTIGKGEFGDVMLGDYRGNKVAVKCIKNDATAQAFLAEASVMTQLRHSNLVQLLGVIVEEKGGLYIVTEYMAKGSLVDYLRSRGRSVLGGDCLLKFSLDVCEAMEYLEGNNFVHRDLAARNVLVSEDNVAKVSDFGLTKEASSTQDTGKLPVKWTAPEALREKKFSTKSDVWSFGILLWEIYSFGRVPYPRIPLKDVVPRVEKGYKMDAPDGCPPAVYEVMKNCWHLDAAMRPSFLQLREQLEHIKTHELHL

Take `CCOc1cc(C(=O)N2CCC(N3CCN(C)CC3)CC2)ccc1Nc1ncc2c(n1)N(C1CCCC1)c1ccccc1C(=O)N2C` [Compound 26]: the “KINOMEscan: CSK” value at panel of 442 kinases [1] is given as 100. Moreover, at panel of 442 kinases [2], the “KINOMEscan: PLK4” value worked out at 5.1.

Turning to `COc1cc(C(=O)N2CCC(N3CCN(C)CC3)CC2)ccc1Nc1ncc2c(n1)N1CCc3cccc(c31)C(=O)N2C` [Compound 24], at panel of 442 kinases [1], the “KINOMEscan: CSK” value is 75. At panel of 442 kinases [2], the “KINOMEscan: PLK4” value is given as 0.3.

`COc1cc(C(=O)N2CCC(N3CCN(C)CC3)CC2)ccc1Nc1ncc2c(n1)N(C)c1ccccc1C(=O)N2C` [15 (LRRK2-IN-1)]: the “KINOMEscan: CSK” value on panel of 442 kinases [1] was found to be 90. The “KINOMEscan: PLK4” value on panel of 442 kinases [2] was 0.

On to `COc1cc(C(=O)N2CCC(N3CCN(C)CC3)CC2)ccc1Nc1ncc2c(n1)N(C1CCCC1)c1ccccc1C(=O)N2C` [Compound 25, 11-cyclopentyl-2-((2-methoxy-4-(4-(4-methylpiperazin-1-yl)piperidine-1-carbonyl)phenyl)amino)-5-methyl-5H-benzo[e]pyrimido[5,4-b][1,4]diazepin-6(11H)-one], for which the “KINOMEscan: CSK” value on panel of 442 kinases [1] stood at 74. On panel of 442 kinases [2], the “KINOMEscan: PLK4” value stood at 0.25.
